Data published in article PMC5382200, “Mapping and Identification of Antifungal Peptides in the Putative Antifungal Protein AfpB from the Filamentous Fungus Penicillium digitatum” (Frontiers in Microbiology, 2017).
≈ marks a conversion by molar mass, not a printed value. Entries after “also recorded” stand apart in the source; their conditions may differ. Read-outs that look alike come from different tables or passages of the source. Positions of bridges follow the written chain, without caps; N, C: chain ends. Residues, ends and D or L forms follow the SMILES beside them. No end group written: not given here.

Key:
[1] = test system: A. niger CBS 120.49
Description: (§1) The fungal strains used in this study are P. digitatum CECT20796, P. chrysogenum Q176, Botrytis cinerea CECT2100, Fusarium oxysporum 4287, and Aspergillus niger CBS 120.49. Fungi were cultured on potato dextrose agar (Difco-BD Diagnostics, Sparks, MD, USA) plates for 7–10 days at 24°C with the exception of F. oxysporum, which was cultured on potato dextrose broth (PDB; Difco-BD Diagnostics) at 28°C for 4 days with shaking. Conidia (mitotic asexual spores) were collected, filtered, and adjusted to the appropriate concentration. For antibacterial assays, the Gram-negative bacterium Escherichia coli JM109 was grown in Luria-Bertani (LB) medium at 37°C with shaking.
(§2) Growth inhibition assays were performed in 96-well microtiter plates (Nunc, Roskilde, Denmark) in a total volume of 100 μL as described previously ([López-García et al., 2002]). […] All samples were prepared in triplicate. Plates were statically incubated for 72 h at the optimal temperature of each microorganism. Growth was determined by measuring the optical density (OD) at 600 nm (OD600) using a Multiskan Spectrum plate spectrophotometer (Thermo Electron Corporation, Vantaa, Finland), and the OD600 mean and SD were calculated. Dose–response curves were generated from measurements after 72 h for fungi, and 48 h for E. coli. These experiments were repeated at least twice.

[2] = test system: B. cinerea CECT2100
Description: as §1, §2

[3] = test system: P. chrysogenum Q176; conditions: 72 h
Description: as §1, §2

[4] = test system: P. digitatum CECT20796
Description: as §1, §2

[5] = molecular target: T1, recombinant proteinase K (Parengyodontium album, UniProt P06873); test: Proteolytic digestion assay with RP-HPLC analysis; format: in vitro ADME; conditions: two replicates; for resistance to degradation by proteinase K (in words): peptide 5 μM in 10 mM MOPS pH 7, 30°C, 0, 1, 2 and 24 h
T1 construct: purchased Roche, Mannheim, Germany
T1 sequence (P06873 106-384): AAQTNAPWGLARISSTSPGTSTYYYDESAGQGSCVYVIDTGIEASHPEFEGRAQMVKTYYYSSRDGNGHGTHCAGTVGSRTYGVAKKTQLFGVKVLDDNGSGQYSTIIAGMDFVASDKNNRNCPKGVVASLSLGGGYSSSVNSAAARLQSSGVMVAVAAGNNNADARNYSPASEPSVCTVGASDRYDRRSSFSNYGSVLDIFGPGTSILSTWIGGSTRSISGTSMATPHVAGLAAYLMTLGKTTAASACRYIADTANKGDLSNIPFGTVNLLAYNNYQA
Description: (§3) The proteolytic digestion assays were performed as described ([Ferre et al., 2006]; [López-García et al., 2015]) with minor modifications. Peptides (5 μM) were dissolved in 10 mM MOPS pH 7 and digested with 5 μg/mL of recombinant proteinase K (2 U/mg; Roche, Mannheim, Germany) at 30°C. Aliquots were withdrawn from the reaction mixtures at 0, 1, 2, and 24 h of incubation and immediately heated at 80°C for 10 min to inactivate the enzyme. Two replicates were prepared for each treatment, and the experiments were repeated at least twice.
(§4) Analyses of peptide digests were conducted by RP-HPLC using a Waters system (Waters Corporation, Milford, MA, USA) equipped with a 1525 Binary HPLC pump, a 2996 Photodiode Array Detector, and a 717 plus Autosampler. A Symmetry C18 column (4.6 mm × 150 mm, 5 μm, Waters Corporation) kept at 40°C was operated at a flow rate of 1 mL/min. Peptides were eluted with a linear gradient of solvent B [acetonitrile with 0.1% trifluoroacetic acid (TFA)] in solvent A (water with 0.1% TFA) 0–40% in 20 min and detected at 214 nm.

[6] = test system: T2, proteinase K; test: Proteolytic digestion assay with RP-HPLC analysis; format: in vitro ADME; conditions: recombinant proteinase K; proteinase K 5 μg/mL (2 U/mg), peptide 5 μM in 10 mM MOPS pH 7, 30°C, 24 h; RP-HPLC C18 peak area at 214 nm; two replicates; read-out: peptide left after 24 h of treatment
T2 construct: purchased Roche, Mannheim, Germany
Description: as §3, §4

[7] = test system: F. oxysporum 4287; conditions: 4287, 72 h
Description: as §1, §2

[8] = molecular target: T1, recombinant proteinase K; conditions: control peptide; ref López-García et al., 2015; cited from earlier work
Description: To exclude the possibility that increased sensitivity to proteolytic degradation could be the reason for limited antifungal activity, we tested the in vitro stability of the peptides derived from AfpB by incubation with proteinase K at different times and RP-HPLC analysis of the resultant digests.

[9] = ref Palicz et al., 2013; cited from earlier work
From the text: (§5) There is an urgent need to develop new antifungal molecules with properties and mechanisms of action different from existing ones ([Brown et al., 2012]; [Fisher et al., 2012]). […] A remarkable group of AMPs are the antifungal proteins (AFPs) of fungal origin. AFPs belong to the broad class of defensins and are p ...

[10] = test system: mammalian cells; conditions: ref Marx et al., 2008; cited from earlier work
From the text: as §5

[11] = B. cinerea CECT2100, 2.5 × 10^4 conidia/mL in 1/20 diluted PDB with 0.01% chloramphenicol, 72 h, OD600, triplicate
[12] = proteinase K 5 μg/mL, RP-HPLC peak area at 214 nm

Compound	Minimum inhibitory concentration (MIC) [2, 11]	resistance to degradation by proteinase K (in words) [5, 12]	Minimum inhibitory concentration (MIC) ([1]; CBS 120.49, 72 h)	Minimum inhibitory concentration (MIC) [3]	Minimum inhibitory concentration (MIC) ([4]; CECT20796, 72 h)	also measured
NAGSAANKRAKSDRHHAE [PAF113]	128 µM	high sensitivity				Minimum inhibitory concentration (MIC) ([1]; A. niger CBS 120.49, 2.5 × 10^4 conidia/mL in 1/20 diluted PDB with 0.01% chloramphenicol, 72 h, OD600, triplicate): >128 µM; Minimum inhibitory concentration (MIC) ([3]; P. chrysogenum Q176, 2.5 × 10^4 conidia/mL in 1/20 diluted PDB with 0.01% chloramphenicol, OD600, triplicate): >128 µM; Minimum inhibitory concentration (MIC) ([4]; P. digitatum CECT20796, 2.5 × 10^4 conidia/mL in 1/20 diluted PDB with 0.01% chloramphenicol, 72 h, 24°C, OD600, triplicate, repeated at least twice, concentration that completely inhibited growth in all experiments): 64 µM; degradation after 1 h of treatment ([5]; proteinase K 5 μg/mL, peptide 5 μM in 10 mM MOPS pH 7, 30°C, 1 h, RP-HPLC peak area at 214 nm): completely degraded
CC(C)C[C@@H]1NC(=O)[C@H](CO)NC(=O)[C@@H](NC(=O)[C@H](CCC(N)=O)NC(=O)CN)CSSC[C@@H](C(=O)N[C@H](C(=O)O)[C@@H](C)O)NC(=O)[C@H]([C@@H](C)O)NC(=O)[C@H](CC(N)=O)NC(=O)[C@H](Cc2c[nH]cn2)NC(=O)[C@H](CCCCN)NC1=O [PAF109] (H-GQCSLKHNTCT-OH; disulfide 3-10)		remarkably resistant; also recorded: extremely stable				
C[C@@H]1NC(=O)[C@H](C)NC(=O)[C@H](CO)NC(=O)CNC(=O)[C@@H](NC(=O)[C@@H](N)CC(N)=O)CSSC[C@@H](C(=O)N[C@@H](CCC(=O)O)C(=O)O)NC(=O)[C@H](Cc2c[nH]cn2)NC(=O)[C@H](Cc2c[nH]cn2)NC(=O)[C@H](CCCNC(=N)N)NC(=O)[C@H](CC(=O)O)NC(=O)[C@H](CO)NC(=O)[C@H](CCCCN)NC(=O)[C@H](C)NC(=O)[C@H](CCCNC(=N)N)NC(=O)[C@H](CCCCN)NC(=O)[C@H](CC(N)=O)NC1=O [PAF112] (H-NCGSAANKRAKSDRHHCE-OH; disulfide 2-17)	128 µM (≈ 254 µg/mL)		>128 µM	>128 µM	64 µM (≈ 127 µg/mL)	remaining at 24 h, 5 μM [6]: ~20%
CC[C@H](C)[C@@H]1NC(=O)[C@H](C(C)C)NC(=O)[C@H](CC(N)=O)NC(=O)[C@H](CCCNC(=N)N)NC(=O)CNC(=O)CNC(=O)[C@H](CCCCN)NC(=O)[C@H](CC(C)C)NC(=O)[C@H](Cc2ccc(O)cc2)NC(=O)[C@H]([C@@H](C)O)NC(=O)[C@@H](NC(=O)[C@@H](NC(=O)[C@@H](N)CC(N)=O)[C@@H](C)O)CSSC[C@@H](C(=O)NCC(=O)O)NC(=O)[C@H](CC(N)=O)NC(=O)[C@H](C(C)C)NC1=O [PAF118] (H-NTCTYLKGGRNVIVNCG-OH; disulfide 3-16)	64 µM (≈ 116 µg/mL)		>128 µM	>128 µM	64 µM (≈ 116 µg/mL)	peptide left after 24 h of treatment ([5]; proteinase K 5 μg/mL (2 U/mg), peptide 5 μM in 10 mM MOPS pH 7, 30°C, 24 h, RP-HPLC C18 peak area at 214 nm): around 20%; intact peptide after 1 and 2 h of treatment ([5]; proteinase K 5 μg/mL, peptide 5 μM in 10 mM MOPS pH 7, 30°C, 1 and 2 h, RP-HPLC peak area at 214 nm): severe reduction
C[C@@H]1NC(=O)[C@H](CCCCN)NC(=O)[C@H](CCCCN)NC(=O)[C@H](CC(N)=O)NC(=O)[C@H](CC(=O)O)NC(=O)[C@H](Cc2ccccc2)NC(=O)[C@H](CCCCN)NC(=O)[C@@H]2CCCN2C(=O)[C@@H](NC(=O)[C@@H](N)CCCCN)CSSC[C@@H](C(=O)N[C@H](C(=O)O)[C@@H](C)O)NC(=O)[C@H](CCCCN)NC(=O)[C@H](CC(N)=O)NC(=O)[C@H](CC(N)=O)NC(=O)[C@H](CC(=O)O)NC(=O)[C@H](CCCCN)NC(=O)[C@H]([C@@H](C)O)NC1=O [PAF116] (H-KCPKFDNKKATKDNNKCT-OH; disulfide 2-17)	16 µM (≈ 33.3 µg/mL)				32 µM (≈ 66.6 µg/mL)	
RKKWFW [PAF26, reference compound]			8 µM	16 µM	8 µM	Minimum inhibitory concentration (MIC) ([2]; CECT2100, 72 h): 8 µM; Minimum inhibitory concentration (MIC) [7]: 16 µM; resistance to protease degradation [8]: highly resistant
AKYTGKCTKSKNECKYKNDAGKDTFIKCPKFDNKKCTKDNNKCTVDTYNNAVDCD (disulfide 7-36, 14-43, 28-54) [PAF protein]						toxicity in vivo [9]: non-toxic; toxicity to mammalian cells in vitro [10]: non-toxic
CC(C)[C@@H]1NC(=O)[C@H](CCCNC(=N)N)NC(=O)[C@H](CCCNC(=N)N)NC(=O)[C@H](Cc2c[nH]cn2)NC(=O)[C@H](Cc2c[nH]cn2)NC(=O)[C@H](CCC(=O)O)NC(=O)[C@H](CC(=O)O)NC(=O)[C@H](Cc2ccc(O)cc2)NC(=O)[C@H](CCC(=O)O)NC(=O)[C@@H](NC(=O)[C@@H](N)Cc2c[nH]cn2)CSSC[C@@H](C(=O)N[C@@H](CCC(N)=O)C(=O)O)NC(=O)[C@H](CC(=O)O)NC1=O [PAF119] (H-HCEYDEHHRRVDCQ-OH; disulfide 2-13)		remarkably resistant; also recorded: extremely stable				
